Among the data in BindingDB's records for doi:10.1124/mol.107.042622 (The Johns Hopkins University, 2008) are IC50 and Ki values, retold here.

Usually IC50 stands for the concentration needed to halve the response being measured. A lower IC50 goes with higher potency. The term Ki denotes a measure of affinity in units of concentration, obtained from inhibition or displacement. A higher Ki goes with lower affinity.

This test deals with DNA-(apurinic or apyrimidinic site) endonuclease (Homo sapiens, UniProt P27695). Description: High-Throughput Screening and IC50 Determinations. The settings on record: pH 7.5; 22 °C. The protocol: The screening assay was performed using 384-well microtiter plate first spotted with test compounds. Then Ape1 in reaction buffer was added to each well. The reaction was initiated through the addition of substrate. After incubation, the final fluorescence was measured using a FLUOstar Optima plate reader (BMG Labtech GmbH, Offenburg, Germany) at excitation and emission wavelengths of 485 and 520 nm, respectively. IC50 analyses were carried out on the best hits by first plating 10-fold dilutions of each inhibitor onto 384-well plates. Using the initial rate values, percentage activity was calculated for each sample relative to a negative (DMSO only) control. The data were fitted to a sigmoidal dose-response model using Prism software (GraphPad Software, San Diego, CA).
DNA-(apurinic or apyrimidinic site) endonuclease, sequence (P27695 whole entry): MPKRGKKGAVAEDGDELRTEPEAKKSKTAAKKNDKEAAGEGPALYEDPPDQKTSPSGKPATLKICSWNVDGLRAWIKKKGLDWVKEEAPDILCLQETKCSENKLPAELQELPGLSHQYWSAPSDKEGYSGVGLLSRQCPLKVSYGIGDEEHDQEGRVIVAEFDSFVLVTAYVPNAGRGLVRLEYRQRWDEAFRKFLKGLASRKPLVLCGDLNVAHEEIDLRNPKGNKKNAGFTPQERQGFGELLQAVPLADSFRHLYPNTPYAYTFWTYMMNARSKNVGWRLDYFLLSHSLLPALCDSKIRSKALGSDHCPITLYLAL
Compound `O=C(O)c1cc[c]([Sb](=[O])([OH])[OH])cc1[N+](=O)[O-]` [4-[dihydroxy(oxo)--stibanyl]-2-nitrobenzoic acid] yielded an IC50 of 4 nM and a Ki of 19 nM.

As to `O=C(O)/C=C/c1ccc[c]([Sb](=[O])([OH])[OH])c1` [(2E)-3-{3-[dihydroxy(oxo)--stibanyl]phenyl}prop-2-enoic acid], 200 nM corresponded to half-maximal inhibition (IC50).

`O=C(Nc1cc[c]([Sb](=[O])([OH])[OH])cc1)c1ccccc1` [N-{4-[dihydroxy(oxo)--stibanyl]phenyl}benzamide] displayed an IC50 of 300 nM.

Turning to `CCOC(=O)CCCc1cc[c]([Sb](=[O])([OH])[OH])cc1` [ethyl 4-{4-[dihydroxy(oxo)--stibanyl]phenyl}butanoate], half-maximal inhibition (IC50) was put at 17 nM and the Ki was determined as 36 nM.
